What was measured:
[1] = molecular target: T1, human androgen receptor (Homo sapiens, UniProt P10275); assay: AR transcriptional activity on MMTV-LUC, CV-1 cells, AR alone; format: cell-based; settings: FIG. 10
T1 sequence (P10275 1-920): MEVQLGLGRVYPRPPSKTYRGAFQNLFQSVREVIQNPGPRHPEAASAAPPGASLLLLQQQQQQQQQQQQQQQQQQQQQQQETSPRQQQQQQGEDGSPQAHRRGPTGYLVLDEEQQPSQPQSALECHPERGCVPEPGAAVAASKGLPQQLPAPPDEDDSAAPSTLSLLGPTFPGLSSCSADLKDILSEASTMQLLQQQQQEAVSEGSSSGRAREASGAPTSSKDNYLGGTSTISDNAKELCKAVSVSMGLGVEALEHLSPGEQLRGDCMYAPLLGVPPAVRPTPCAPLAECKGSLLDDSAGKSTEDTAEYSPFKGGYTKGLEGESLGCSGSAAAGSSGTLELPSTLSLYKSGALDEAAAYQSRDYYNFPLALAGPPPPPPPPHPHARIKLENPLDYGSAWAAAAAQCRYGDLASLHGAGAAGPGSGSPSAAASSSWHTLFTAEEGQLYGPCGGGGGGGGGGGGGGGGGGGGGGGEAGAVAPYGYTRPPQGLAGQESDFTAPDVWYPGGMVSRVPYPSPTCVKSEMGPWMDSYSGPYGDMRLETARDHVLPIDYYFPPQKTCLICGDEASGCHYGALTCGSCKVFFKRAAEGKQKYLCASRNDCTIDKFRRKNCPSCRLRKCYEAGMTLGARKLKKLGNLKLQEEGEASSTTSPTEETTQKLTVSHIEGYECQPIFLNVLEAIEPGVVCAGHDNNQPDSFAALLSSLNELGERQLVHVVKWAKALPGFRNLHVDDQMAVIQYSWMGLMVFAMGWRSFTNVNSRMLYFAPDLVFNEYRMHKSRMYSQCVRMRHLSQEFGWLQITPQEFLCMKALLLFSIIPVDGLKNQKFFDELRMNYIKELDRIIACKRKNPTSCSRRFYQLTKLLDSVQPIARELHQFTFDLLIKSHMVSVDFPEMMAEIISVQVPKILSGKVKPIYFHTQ
Procedure: FIGS. 10A-10B are a series of graphs showing CV-1 cells that were transiently transfected with an expression vector for the human androgen receptor (pRShAR) alone, or in combination with phPR-A together with 5 µg/ml of the MMTV-LUC reporter and 5 µg/ml of pCH110 as an internal control. […] The relative luciferase activity is calculated by dividing the normalized luciferase value at a given point by that obtained in the absence of transfected receptor or ligand. […] The data are presented as percent (%) activation, where 100% represents the maximal induction achieved by human androgen receptor at 10^ -8 M DHT. The experimental data represents mean values +/- the average deviation from the mean of quadruplicate estimations;
Cells were seeded in 12-well, 96-well or 10 cm tissue culture plates. […] 20 μg of DNA/ml of transfection buffer were used in each transfection reaction. In this mix, the concentration of the luciferase plasmids and that of the internal control plasmid pCH110 (Pharmacia, Inc.), which contains the gene for the β-galactosidase enzyme, remained constant ([…] of each plasmid DNA), while the receptor plasmid concentration varied as indicated for each experiment. […]

[2] = system: PR; settings: cited from earlier work
[3] = system: PR-B (co-expressed with PR-A); assay: PR-A repression of PR-B mediated MMTV-LUC transcription (co-transfection); format: cell-based, human; settings: for transcriptional repression: HeLa, FIG. 3B
Procedure: FIGS 3A-3B are a series of graphs showing CV-1 (FIG. 3A) or HeLa (FIG. 3B) cells that were transiently transfected with either 0.25 g of phPR-A or 0.25 g phPR-B alone, or 0.25 g phPR-B in the presence of increasing concentration of phPR-A together with […] of the MMTV-LUC reporter and […] of pCH110 as an internal control. […] The relative luciferase activity is calculated by dividing the normalized luciferase value at a given point by that obtained in the absence of transfected receptor or ligand. Data shown indicate the mean +/- average deviation from the mean of triplicate estimations;
(§1) Cells were seeded in 12-well, 96-well or 10 cm tissue culture plates. […] 20 μg of DNA/ml of transfection buffer were used in each transfection reaction. In this mix, the concentration of the luciferase plasmids and that of the internal control plasmid pCH110 (Pharmacia, Inc.), which contains the gene for the β-galactosidase enzyme, remained constant ([…] of each plasmid DNA), while the receptor plasmid concentration varied as indicated for each experiment. Different amounts of receptor parental plasmid, pSV2-neo (Dr. Bert O'Malley, Baylor College of Medicine, Houston, Tex.) was included to keep constant the total amount of the SV40 enhancer vectors. pGEM4 plasmid DNA (Promega Biotech, Madison, Wis.) was added to balance the total DNA concentration to 20 g/reaction. For the 96-well plate experiments, transfections were performed on a Biomek 1000 Automated Laboratory Workstation (Beckman Instruments, Fullerton, Calif.).
Cells were seeded 24 hours prior to transfection in the fiat-bottom tissue culture plates ([…]) in phenol red-free DMEM containing 10% FCS. […] Using calcium phosphate co-precipitation, DNA solution was added dropwise with vortexing into an equal volume of 2X HBS pH 6.9 (280 mM NaCl. 50 mM HEPES, 1.5 mM Na2 HPO4) and precipitates were allowed to form for 20 minutes. Cells were transfected ( […] of DNA mix/well) for 6 hours and then washed with phosphate-bufferedsaline (PBS) to remove the precipitate. Cells were incubated for an additional 24 hours in phenol red-free medium containing 10% charcoal-treated FCS, with or without hormones as indicated in the text. Cell extracts were prepared as described by Berger et al., Supra, and assayed for luciferase and β-galactosidase activities. All determinations were performed in triplicates in at least two independent experiments, and were normalized for transfection efficiency by using β-galactosidase as an internal control.

[4] = system: human progesterone receptor isoform PR-B; assay: PR-B transactivation of MMTV-LUC reporter, transient transfection; format: cell-based; settings: 10^-7 M progesterone
Procedure: The cells were then incubated with either progesterone or an inert vehicle (ethanol (ETOH)). Western immunoblot analysis using two PR specific monoclonal antibodies (B30 and AB52, available from Dean Edwards, University of Colorado) confirmed that no hPR-A was synthesized from our PR-B constructs.

[5] = system: PR-B (co-expressed with PR-A587); assay: Repression of PR-B mediated MMTV-LUC transcription by DNA binding mutant PR-A587, CV-1 cells; format: cell-based, human; settings: equimolar phPR-A587 and phPR-B DNA, 10^-7 M progesterone, FIG. 9
Procedure: The relative luciferase activity is calculated by dividing the normalized luciferase value at a given point by that obtained in the absence of transfected receptor or ligand.
as §1
Cells were seeded 24 hours prior to transfection in the fiat-bottom tissue culture plates ([…]) in phenol red-free DMEM containing 10% FCS. […]

effect on DHT-induced AR activity [1] | SMILES | effect on PR DNA binding [2] | recovery of PR-B mediated transcription ([3]; CV-1, PR-A/PR-B DNA ratio 1:5) [%] | recovery of PR-B mediated transcription ([3]; CV-1, PR-A/PR-B DNA ratio 1:25) [%] | inhibition of MMTV-LUC transcriptional activity ([3]; CV-1, equimolar concentrations of PR-A and PR-B) | transcriptional repression ([3]; 1:1 PR-A/PR-B DNA ratio) [%] | transcriptional repression ([3]; 1:5 PR-A/PR-B DNA ratio) [%] | transcriptional repression ([3]; 1:25 PR-A/PR-B DNA ratio) [%] | effect of coexpression of PR-A and PR-B on MMTV transcription ([3]; HepG2, data not shown) | IC50 ([3]; read-out: progesterone concentration required for half maximal inhibition, CV-1, PR-A mediated repression of PR-B, MMTV) [nM] | progesterone mediated activation of the MMTV promoter ([4]; CV-1 cells, PR-B, FIG. 2A) | activation of the MMTV promoter by PR-B ([4]; HepG2 cells, FIG. 2C) | reduction of transcriptional activity of PR-B [5] [%]
efficient inhibitor of DHT-activated AR | CC#C[C@]1(O)CC[C@H]2[C@@H]3CCC4=CC(=O)CCC4=C3[C@@H](c3ccc(C(C)=O)cc3)C[C@@]21C [ZK112993] | promotes the association of PR with DNA |  |  |  |  |  |  |  |  |  |  | 
 | CC(=O)[C@H]1CC[C@H]2[C@@H]3CCC4=CC(=O)CC[C@]4(C)[C@H]3CC[C@]12C [progesterone] |  | […] | […] | […] | […] | […] | […] | […] | […] | permitted progesterone mediated activation of the MMTV promoter | both PR-A and PR-B functioned as efficient activators | […]

Reference: patent US5506102A (priority 1993, dated 1996)
